Experimental data as given in patent US20260275299A1, “Bioprinted Three-Dimensional Tumor Model” (ASOCIACIÓN CENTRO DE INVESTIGACIÓN EN BIOMATERIALES - CIC …, priority 2023, published 2026).

Tested on: MCF-7 tumor models
Test: Live/dead staining of drug-treated 3D tumor models
Format: cell-based, human
Details: 200 μM, compared to negative and positive controls
Procedure: To assess cell viability in both the core tumor model and the 3D breast tumor model with the stromal compartment, calcein (targets live cells in green) and propidium iodide (targets dead cells in red) were added to the cell culture medium of the 3D constructs at a 1:100 concentration.

## CC/C(=C(\c1ccccc1)c1ccc(OCCN(C)C)cc1)c1ccccc1 [Tamoxifen]
  live/dead staining: Dead cells are observed in the outer regions of the models
